Patent publication US10508103B2, “Benzimidazole-linked indole compound acting as novel divalent IAP antagonist” (MEDSHINE DISCOVERY INC., priority 2016, dated 2019)

Key:
cIAP2-BIR3 Protein = cIAP2-BIR3 Protein (Homo sapiens (Human), UniProt Q13489); assay: Fluorescence polarization affinity of compounds to cIAP2-BIR3; assay type: binding; conditions: cIAP2-BIR3 60 nM; 5 nM ARPFAQ-K(5-FAM)-NH2 probe; FP; pH 7.5; read-out: affinity to target protein in vitro, cIAP2-BIR3 Protein (IC50)
Description: (§1) Biological Assay 1: affinity of compounds to cIAP1-BIR3, cIAP2-BIR3, XIAP-BIR3 • 1) Affinity of compounds listed in table to cIAP1-BIR3, Ciap2-BIR3, XIAP-BIR3 was tested referring to Nikolovska-Colesks, Z. et.Al. (Analytical Biochemistry,2004,232:261-273) to obtain IC50 value. Generally speaking, in 10-dose IC50 mode, IAP antagonists with different concentrations were diluted in series by 3-fold and fluorescence labelled ARPFAQ-K (5-FAM)-NH2 peptide was used as probe to test compounds binding to protein BIR3 domain. • 2) Test condition: cIAP1-BIR3: 20 nM; cIAP2-BIR3: 60 nM; XIAP-BIR3: 30 nM; 5 nM probe in 100 mM tripotassium phosphate, pH 7.5, 0.1 mg/mL BSA, 0.005% Triton X100 and 0.5% DMSO. • 3) Test procedure: compounds were added into protein with different concentrations by using ECHO (LabCyte), and then the mixture was preincubated for 15 min. The probe was added and the final concentration was 5 nM. After incubating for 60 min, FP was tested and mP was calculated. Experiment results were list in table 1.

XIAP-BIR3 Protein = XIAP-BIR3 Protein (Homo sapiens (Human), UniProt P98170); assay: Fluorescence polarization affinity of compounds to XIAP-BIR3; assay type: binding; conditions: XIAP-BIR3 30 nM; 5 nM ARPFAQ-K(5-FAM)-NH2 probe; FP; pH 7.5; read-out: affinity to target protein in vitro, XIAP-BIR3 Protein (IC50)
XIAP-BIR3 Protein, sequence (P98170 241-356): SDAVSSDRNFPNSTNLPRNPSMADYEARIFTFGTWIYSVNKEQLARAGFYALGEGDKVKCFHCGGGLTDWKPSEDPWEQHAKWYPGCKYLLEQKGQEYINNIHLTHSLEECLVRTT
Description: as §1

[1] = test system: NF-κB Luciferase Reporter Hela cells; assay: TNF-α inducing NF-κB reporter; assay type: cell-based
Description: Biological Assay 2: TNF-α inducing NF-κB reporter
• 1) tested compounds were added into DMSO to give parent liquor (10 mM); • 2) reference compound Birinapant (32 μL, 10 mM) was added into DMSO (128 μL) to give a solution (2 mM); • 3) 0.5 μL reference compound Birinapant (2 mM) and tested compounds (10 mM) were taken by Echo and added into Greiner 96 well black cell culture plate respectively. The initial concentration of the reference compound and tested compound was 10 μM and 50 μM, respectively. Then, the reference compound and tested compounds were diluted at 9 points in series by 5-fold; and every plate was repeated for 3 times. • 4) the reference compound WXFL2012A001 (Birinapant) (final concentration: 10 μM) as HPE and DMSO (final concentration: 0.5%) as ZPE.
• 5) purpose of the three repeated plates: the first plate was used for testing compounds' activity;
the second plate was used for testing cytotoxicity of the compounds; the third plate was used for solution replacement of the first and second plates: mixing inducer TNF-α and medium containing 0.1% FBS, and then being added to the third plate and the resultant mixture was transferred to the first plate where supernatants had been removed.
• 1) removing medium in NF-iBLuciferase Reporter Hela cell culture flask and washing cell once with PBS (10 mL) • 2) adding 0.25% pancreatin (3 mL) to T150 cell culture flask, and placinginto cell incubator (37° C., 5%CO2) and dissociating cell for 3 min, and then medium (10 mL) was added to end dissociation and blowing cells with electric pipette until cells were dispersed into single cell. • 3) Calculating cell density with cell counter Countstar • 4) Adjusting NF-κB Luciferase Reporter Hela density with medium to 2.0×10^5 cells/mL • 5) Adding cells to two Greiner 96 well black cell culture plates containing compounds, (100 μL per well (2.0×10^4 cells/well)), one plate was used for testing compounds' activity, another was used for testing cytotoxicity of the compounds. • 6) Placing cell culture plates into cell incubator (37° C., 5%CO2) and incubatingfor 24 h Second Day TNF-α Inducing • 1) TNF-α (100 μg/mL) was diluted into 20 ng/mL with 0.1% FBS medium and transferredto the third plate with 100 μL per well • 2) Removing medium of the first 96 well black cell culture plate (compound activity testing plate) after 24 h, replacing with fresh medium containing the compound and 20 ng/mL TNF-α in the third plate • 3) Placing cell culture plate into cell incubator (37° C., 5% CO2) and incubatingfor 6 h • 4) after 6 h, compound's activity in the first plate was tested according to Bright-Glo (Promega) manual method, luciferase signal in each well was tested by Envision plate reader • 5) compound's cytotoxicity in the second plate was tested according to ATPlite 1Step (Perkin Elmer) manual method, luciferase signal in each well was tested by Envision plate reader • 6) analyzing with software to obtain EC50 of compound.

cIAP1-BIR3 Protein = cIAP1-BIR3 Protein (Homo sapiens (Human), UniProt Q13490); assay: Fluorescence polarization affinity of compounds to cIAP1-BIR3; assay type: binding; conditions: cIAP1-BIR3 20 nM; 5 nM ARPFAQ-K(5-FAM)-NH2 probe; FP; pH 7.5; read-out: affinity to target protein in vitro, cIAP1-BIR3 Protein (IC50)
cIAP1-BIR3 Protein, sequence (Q13490 253-363): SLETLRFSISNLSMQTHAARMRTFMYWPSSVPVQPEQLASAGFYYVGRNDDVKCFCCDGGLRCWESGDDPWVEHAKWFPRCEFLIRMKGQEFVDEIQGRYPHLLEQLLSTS
Description: as §1

[2] = Homo sapiens, 6 h, Table 3, 20 ng/mL TNF-α, Bright-Glo luciferase, values given as ranges
[3] = Homo sapiens, 6 h, Table 4, 20 ng/mL TNF-α, Bright-Glo luciferase, exact values with control Birinapant

cIAP2-BIR3 Protein, sequence (Q13489 238-349): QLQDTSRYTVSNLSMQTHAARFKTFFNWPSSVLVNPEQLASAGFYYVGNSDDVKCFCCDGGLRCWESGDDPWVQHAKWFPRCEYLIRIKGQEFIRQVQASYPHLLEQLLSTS

| Structure (SMILES) | IC50 (cIAP2-BIR3 Protein) [nM] | IC50 (XIAP-BIR3 Protein) [nM] | EC50 [1, 2] [nM] | IC50 (cIAP1-BIR3 Protein) [nM] | EC50 [1, 3] [nM] | EC50 ([1]; Homo sapiens, Table 3, 20 ng/mL TNF-α, 6 h, Bright-Glo luciferase, values given as ranges) [nM] |
| --- | --- | --- | --- | --- | --- | --- |
| CC[C@H](NC(=O)[C@H](C)NC)C(=O)N1CCC[C@H]1Cc1c(-c2nc3cc(F)ccc3n2C[C@@H]2CCCN2C(=O)[C@@H](NC(=O)[C@H](C)NC)C(C)C)[nH]c2cc(F)ccc12 [Embodiment 2] | 10 to 100 | 10 to 100 | 10 to 100 | < 10 | – | – |
| CC[C@H](NC(=O)[C@H](C)NC)C(=O)N1C[C@@H](F)C[C@H]1Cc1c(-c2nc3cc(F)ccc3n2C[C@@H]2C[C@H](F)CN2C(=O)[C@H](CC)NC(=O)[C@H](C)NC)[nH]c2cc(F)ccc12 [Embodiment 13] | 10 to 100 | 10 to 100 | > 100 | 10 to 100 | – | – |
| CN[C@@H](C)C(=O)N[C@H](C(=O)N1C[C@@H](F)C[C@H]1Cc1c(-c2nc3cc(F)ccc3n2C[C@@H]2C[C@H](F)CN2C(=O)[C@@H](NC(=O)[C@H](C)NC)C2CC2)[nH]c2cc(F)ccc12)C1CC1 [Embodiment 14] | 10 to 100 | 10 to 100 | 10 to 100 | < 10 | – | – |
| CN[C@@H](C)C(=O)N[C@H](C(=O)N1C[C@@H](F)C[C@H]1Cc1c(-c2nc3cc(F)ccc3n2C[C@@H]2C[C@H](F)CN2C(=O)[C@@H](NC(=O)[C@H](C)NC)C(C)C)[nH]c2cc(F)ccc12)C(C)C [Embodiment 16] | 10 to 100 | 10 to 100 | < 10 | < 10 | 0.66 | – |
| CN[C@@H](C)C(=O)N[C@H](C(=O)N1C[C@@H](F)C[C@H]1Cc1c(-c2nc3cc(F)ccc3n2C[C@@H]2C[C@H](F)CN2C(=O)[C@@H](NC(=O)[C@H](C)NC)C2CCC2)[nH]c2cc(F)ccc12)C1CCC1 [Embodiment 17] | 10 to 100 | < 10 | < 10 | < 10 | – | – |
| CC[C@H](NC(=O)[C@H](C)NC)C(=O)N1C[C@@H](F)C[C@H]1Cc1c(-c2nc3cc(F)ccc3n2C[C@@H]2C[C@H](F)CN2C(=O)[C@@H](NC(=O)[C@H](C)NC)C(C)C)[nH]c2cc(F)ccc12 [Embodiment 18] | 10 to 100 | 10 to 100 | < 10 | < 10 | 6.05 | – |
| CC[C@H](NC(=O)[C@H](C)NC)C(=O)N1C[C@@H](F)C[C@H]1Cc1c(-c2nc3cc(F)ccc3n2C[C@@H]2C[C@H](F)CN2C(=O)[C@@H](NC(=O)[C@H](C)NC)C(C)(C)C)[nH]c2cc(F)ccc12 [Embodiment 19] | 10 to 100 | 10 to 100 | < 10 | < 10 | – | – |
| CC[C@H](NC(=O)[C@H](C)NC)C(=O)N1C[C@@H](F)C[C@H]1Cc1c(-c2nc3cc(F)ccc3n2C[C@@H]2C[C@H](F)CN2C(=O)[C@@H](NC(=O)[C@H](C)NC)C2CCCCC2)[nH]c2cc(F)ccc12 [Embodiment 20] | 10 to 100 | 10 to 100 | < 10 | < 10 | – | – |
| CN[C@@H](C)C(=O)N[C@H](C(=O)N1C[C@@H](F)C[C@H]1Cc1c(-c2nc3cc(F)ccc3n2C[C@@H]2C[C@H](F)CN2C(=O)[C@@H](NC(=O)[C@H](C)NC)C2CC2)[nH]c2cc(F)ccc12)C(C)C [Embodiment 21] | 10 to 100 | 10 to 100 | 10 to 100 | < 10 | – | – |
| CN[C@@H](C)C(=O)N[C@H](C(=O)N1C[C@@H](F)C[C@H]1Cn1c(-c2[nH]c3cc(F)ccc3c2C[C@@H]2C[C@H](F)CN2C(=O)[C@@H](NC(=O)[C@H](C)NC)C(C)(C)C)nc2cc(F)ccc21)C1CC1 [Embodiment 22] | 10 to 100 | 10 to 100 | < 10 | < 10 | – | – |
| CN[C@@H](C)C(=O)N[C@H](C(=O)N1C[C@@H](F)C[C@H]1Cc1c(-c2nc3cc(F)ccc3n2C[C@@H]2C[C@H](F)CN2C(=O)[C@@H](NC(=O)[C@H](C)NC)C2CC2)[nH]c2cc(F)ccc12)C1CCCCC1 [Embodiment 23] | < 10 | 10 to 100 | < 10 | < 10 | – | – |
| CC[C@H](NC(=O)[C@H](C)NC)C(=O)N1C[C@@H](F)C[C@H]1Cn1c(-c2[nH]c3cc(F)ccc3c2C[C@@H]2C[C@H](F)CN2C(=O)[C@@H](NC(=O)[C@H](C)NC)C(C)C)nc2cc(F)ccc21 [Embodiment 24] | 10 to 100 | 10 to 100 | 10 to 100 | < 10 | – | – |
| CC[C@H](NC(=O)[C@H](C)NC)C(=O)N1C[C@@H](F)C[C@H]1Cn1c(-c2[nH]c3cc(F)ccc3c2C[C@@H]2C[C@H](F)CN2C(=O)[C@@H](NC(=O)[C@H](C)NC)C2CC2)nc2cc(F)ccc21 [Embodiment 25] | 10 to 100 | 10 to 100 | 10 to 100 | < 10 | – | – |
| CC[C@H](NC(=O)[C@H](C)NC)C(=O)N1C[C@@H](F)C[C@H]1Cn1c(-c2[nH]c3cc(F)ccc3c2C[C@@H]2C[C@H](F)CN2C(=O)[C@@H](NC(=O)[C@H](C)NC)C(C)(C)C)nc2cc(F)ccc21 [Embodiment 26] | < 10 | < 10 | – | < 10 | – | < 10 |
| CC[C@H](NC(=O)[C@H](C)NC)C(=O)N1C[C@@H](F)C[C@H]1Cn1c(-c2[nH]c3cc(F)ccc3c2C[C@@H]2C[C@H](F)CN2C(=O)[C@@H](NC(=O)[C@H](C)NC)C2CCCCC2)nc2cc(F)ccc21 [Embodiment 27] | < 10 | < 10 | < 10 | < 10 | – | – |
| CN[C@@H](C)C(=O)N[C@H](C(=O)N1C[C@@H](F)C[C@H]1Cn1c(-c2[nH]c3cc(F)ccc3c2C[C@@H]2C[C@H](F)CN2C(=O)[C@@H](NC(=O)[C@H](C)NC)C2CC2)nc2cc(F)ccc21)C(C)C [Embodiment 28] | 10 to 100 | < 10 | < 10 | < 10 | – | – |
